Read-outs that look alike come from different tables or passages of the source.
Columns and labels:
Pb2 = assay: microplate specificity test with on- and off-target heavy metals (fluorescence); assay type: cell-based, E. coli; settings: on-target = 1, no-toxin control = 0; As 1.3, Cd 0.44, Cr(VI) 2, Cu 20, Pb 1, Hg 0.1, Co 20, Fe 500, Ni 1.7, Zn 7.6 μM
Excerpt: (§1) Each column represents the fluorescence response of a strain to the on-target metal (normalized to “1”) and all off-target metals, where “0” represents the unchanged response for the no-toxin control.
(§2) Although the ability to sense cobalt, iron, nickel, and zinc is of secondary importance, these heavy metals were included as potential off-target inducers because they may be present in the natural water supply under test. […] This combinatorial logic was implemented in algorithms.

Cr5 = assay: as above; assay type: cell-based, E. coli; settings: on-target = 1, no-toxin control = 0; As 1.3, Cd 0.44, Cr(VI) 2, Cu 20, Pb 1, Hg 0.1, Co 20, Fe 500, Ni 1.7, Zn 7.6 μM
Excerpt: as §1, §2

As3 = assay: as above; assay type: cell-based, E. coli; settings: on-target = 1, no-toxin control = 0; As 1.3, Cd 0.44, Cr(VI) 2, Cu 20, Pb 1, Hg 0.1, Co 20, Fe 500, Ni 1.7, Zn 7.6 μM
Excerpt: as §1, §2

Cu1 = assay: as above; assay type: cell-based, E. coli; settings: on-target = 1, no-toxin control = 0; As 1.3, Cd 0.44, Cr(VI) 2, Cu 20, Pb 1, Hg 0.1, Co 20, Fe 500, Ni 1.7, Zn 7.6 μM
Excerpt: as §1, §2

Cd1 = assay: as above; assay type: cell-based, E. coli; settings: on-target = 1, no-toxin control = 0; As 1.3, Cd 0.44, Cr(VI) 2, Cu 20, Pb 1, Hg 0.1, Co 20, Fe 500, Ni 1.7, Zn 7.6 μM
Excerpt: as §1, §2

[1] = system: E. coli MG1655 strains Co2-Co4 and Co6-Co8; assay: plate reader validation of cobalt-sensing promoters (GFP fluorescence); assay type: cell-based; settings: microplate wells, various concentrations of cobalt
E. coli MG1655 = assay type: cell-based; settings: for Number DE Genes: false discovery rate below 1%
Excerpt: RNA-Seq results for promoter activation in E. coli MG1655 in response to single and multiple toxin exposures at low and high concentrations: Our analysis of the sequencing data from RNA-Seq experiments to determine candidate genes that are induced upon toxin exposure consisted of three main tasks: sequence alignment, quantification of gene expression, and identification of differentially expressed genes. Sequence alignment: Reads were aligned to the reference E. coli K-12 substr. MG1655 genome using a tolerance of at most two mismatches per alignment to protect against sequencing errors. The alignment was performed using Bowtie software, 5 which is known to be very efficient in aligning reads to a reference genome. Without being limiting, Bowtie software 5 can be used for the alignment. Those skilled in the art will appreciate that there are many such software programs for performing alignments.
Quantification of gene expression: The expression level of each gene was determined as a function of the number of aligned reads mapping to the gene. […] Additionally, we implemented our own algorithms for sequence alignment and quantification of gene expression in order to crosscheck all results.
Identification of differentially expressed genes: Finally, a set of statistical and information theory algorithms were applied in order to extract not only differentially expressed (DE) genes for each toxin with respect to the control samples (pure water) but also toxin-specific genes. DESeq is a standard tool for identifying DE genes that allowed us to select sensitive genes with differential expression between the control samples (pure water) and the cells exposed to toxin. It assumes that the number of counts for each gene across experimental replicates follows a negative binomial distribution (8, 9). We considered genes with a False Discovery Rate (FDR) lower than 1% as DE in order to ensure statistically robust DE genes. […] Additionally, genes with the largest number of counts and expression levels are preferable in order to maximize the signal-to-noise ratio. When it is not possible to find toxin-specific genes, the next generation of good candidates is formed by those genes satisfying the above properties for a small subset of toxins (multiple-toxin response). It is desirable to have single-toxin-specific genes for several of the toxins in the combination in order to determine toxin-specific multi-gene-responses by means of logical operations. […] Therefore, we have developed information theoretic measures to improve the toxin separability. The core idea of the approach is that low entropies (or highly informative genes) correspond to toxin-specific genes, while large entropies (low information) are associated with scenarios in which DE fold-changes across different toxins are similar and should be discarded.
Milestone 2.1: Expose target cells to toxins of interest over four orders of magnitude of concentration and extract RNA: Three strains of bacteria were exposed to relevant levels of all toxins and extracted RNA. The toxin exposure protocol involves first growing a culture of bacterial cells to mid-log phase (OD≤0.2). […] Finally, cellular RNA was stabilized using Qiagen RNA Protect reagent, the cells were centrifuged, and the pellet was frozen at −80° C. To investigate the cellular RNA response to toxin insult, we exposed E. coli MG1655, E. coli LABEC01, and B. subtilis 168 cells to the toxins and concentrations shown in Table 7 and extracted RNA.
Milestone 2.5: Prepare isolated RNA for Illumina sequencing using vendor provided reagents and carry out sequencing: We have prepared libraries and carried out sequencing for all toxins of interest.

E. coli MG1655/Pb7 = assay: 18-strain chip induction; assay type: cell-based
Excerpt: In an embodiment herein, the toxin response data across 18 unique sensing strains were also collected using a new chip design that houses 16 E. coli strains and 2 B. subtilis strains. The B. subtilis NCIB 3610/Amm3 construct is a “lights-off” sensor, meaning that GFP production drops when ammonium is introduced, following a slight increase due to faster growth on this preferred nitrogen source. […] By combining these sensor responses, we can identify cobalt by the unique response of Pb7 alone and lead by the unique combination of Zn6, Pb7, and Pb8 responses.

[Co] [Cobalt] was tested, and the “fluorescence response of strain Pb2 (on-target lead)” value (Pb2) was 0.80, the “fluorescence response of strain Cr5 (on-target chromium(VI))” value (Cr5) was −0.11 and the “fluorescence response of strain As3 (on-target arsenic)” value (As3) was 0.30. The “fluorescence response of strain Cu1 (on-target copper)” value (Cu1) was −0.01, the “fluorescence response of strain Cd1 (on-target cadmium)” value (Cd1) was 0.67 and the “GFP response to cobalt in the growth medium” value [1] was “significantly respond”. The “response of the dadA promoter” value (E. coli MG1655; RNA-Seq mean fold change) was “specific to cobalt alone”, the “response of the hmp promoter” value (E. coli MG1655; RNA-Seq mean fold change) was “specific to cobalt alone” and the “response of the ilvB promoter” value (E. coli MG1655; RNA-Seq mean fold change) was “specific to cobalt alone”. The “response of the lipA promoter” value (E. coli MG1655; RNA-Seq mean fold change) was “specific to cobalt alone”, the “response of the mmuP promoter” value (E. coli MG1655; RNA-Seq mean fold change) was “specific to cobalt alone” and the “response of the soxR promoter” value (E. coli MG1655; RNA-Seq mean fold change) was “specific to cobalt alone”. For the same compound, the “response of the tehA promoter” value (E. coli MG1655; RNA-Seq mean fold change) was “specific to cobalt alone”, the “response of the ygbA promoter” value (E. coli MG1655; RNA-Seq mean fold change) was “specific to cobalt alone” and the “response of the yjbJ promoter” value (E. coli MG1655; RNA-Seq mean fold change) was “specific to cobalt alone”. The “response of the yqfA promoter” value (E. coli MG1655; RNA-Seq mean fold change) was “specific to cobalt alone”, the “Number DE Genes” value (E. coli MG1655; high concentration) was 1274 and the “Number DE Genes” value (E. coli MG1655; low concentration) was 609. For the same compound, the “GFP response of strain Pb7” value (E. coli MG1655/Pb7) was “responds sensitively”.

Source: patent US20220057378A1, “MICROBIAL MICROFLUIDIC BIOSENSOR” (priority 2015, published 2022)
